Earlier results as cited in patent publication US8512522B2, “Method of producing paper with methane reduction ingredients” (priority 2011, dated 2013).
Like-named read-outs stand apart in the source and are kept apart here.

Columns and labels:
[1] = system: Anaerobic digested sludge + activated sludge
Anaerobic digester = conditions: methane inhibition
Marine sediments = conditions: methane inhibition
Sewage sludge = conditions: methane inhibition
Anaerobic medium = conditions: methane inhibition

Compound	Suppressive Concentration (Anaerobic digester)	also measured
O=S(=O)(O)CCBr [2-Bromoethane sulfonic acid]	–	Suppressive Concentration ([1]; completely inhibited, Parameswaran et al., 2009): 50 mM; Suppressive Concentration ([1]; potently inhibited, Chae et al., 2010): 0.1 to 0.27 mM
[Ca+2] [Calcium]	>2,500 mg/L	–
[Cu+2] [Copper (Cu2+)]	10 to 250 mg/L	–
C=C [Ethylene]	–	Suppressive Concentration (Marine sediments): >5% v/v
[Fe+3] [Ferric iron (Fe3+)]	–	Suppressive Concentration (Sewage sludge): 21 mg/L
[Mg+2] [Magnesium]	>1,000 mg/L	–
[Ni+2] [Nickel (Ni2+)]	–	Suppressive Concentration (Anaerobic medium): 2.5 mM
[K+] [Potassium]	>2,500 mg/L	–
[Zn+2] [Zinc (Zn2+)]	10 to 250 mg/L	–
Sodium	>3,500 mg/L	–
